{
  "source": "patent US20060160095A1",
  "about": "“Survivin” (EiRx Therapeutics Limited, priority 2002, published 2006)",
  "molecules": {"B1": {"name": "G-CSF: inflammatory cytokine, neutrophil hematopoietin (PeproTech) (protein, UniProt P09919 31-207, looked up)", "Granulocyte …": "TPLGPASSLPQSFLLKCLEQVRKIQGDGAALQEKLVSECATYKLCHPEELVLLGHSLGIPWAPLSSCPSQALQLAGCLSQLHSGLFLYQGLLQALEGISPELGPTLDTLQLDVADFATTIWQQMEELGMAPALQPTQGAMPAFASAFQRRAGGVLVASHLQSFLEVSYRVLRHLAQP"}},
  "key": {"[1]": {"test_system": "Primary human neutrophils", "assay": "MTT survival assay of neutrophils cultured with GM-CSF, with or without gliotoxin", "assay_type": "cell-based", "conditions": "0.1 μg/ml added with 5 U/ml GM-CSF", "experimental": "Primary human neutrophils are isolated and purified from peripheral blood of normal healthy individuals. Neutrophils are resuspended in serum containing culture medium together with various amounts of GM-CSF at a density of 2×10^6/ml, with 100 μl plated into a 96 well plate and cultured for 18 h at 37° C. After this time 10 μl of MTT (5 mg/ml) is added to the cultures and incubated for a further 4 h at 37° C. before solubilisation of the purple coloured formazan with acidic isopropanol. Optical densities are read at 570 nm using a plate reader.\nPrimary human neutrophils are isolated and purified from peripheral blood of normal healthy individuals. Neutrophils are resuspended in serum containing culture medium containing 5 U/ml of GM-CSF at a concentration of 2×10^6/ml. […] After the indicated time, 10 μl of MTT (5 mg/ml) are added to the cultures and incubated for a further 4 h at 37° C. before solubilisation of the purple coloured formazan with acidic isopropanol. Optical densities are read at 570 nm using a plate reader."}, "[2]": {"test_system": "Neutrophils", "assay": "Neutrophil apoptosis by oligonucleosomal DNA fragments after 2-MOE oligonucleotides", "assay_type": "cell-based, human", "conditions": "for GM-CSF- and G-CSF-mediated survival of neutrophils: oligonucleotide plus GM-CSF or G-CSF", "experimental": "Neutrophil apoptosis is assessed by oligonucleosomal DNA fragmentation (Dibbert et al.(1999) Proc. Natl. Acad. Sci. USA 96, 13330-13335; Hebestreit et al. (1998), J. Exp. Med. 187, 415-425) according to Nicoletti et al. ((1991) J. Immunol. Meth. 139, 271-279). Briefly, cells are resuspended in hypotonic fluorochrome solution containing 50 μg/ml propidium iodide (Sigma Buchs, Switzerland), 0.1% sodium citrate (Sigma) and 0.1% (vol/vol) Triton-X 100 (Sigma), incubated at 4° C. for 10 h, and analyzed by flow cytometry (FACScan, Becton Dickinson, Heidelberg, Germany).\n(§1) The 20-mer first generation antisense oligonucleotide 4003 targeting the survivin mRNA has been described above. The second generation 2′-O-methoxy-ethoxy (2′-MOE) gapmer version of 4003 (as) and its 3-base mismatch sequence control (ms) are synthesized using an Applied Biosystems 394B automated DNA synthesizer as described (De Mesaeker et al. (1995) Acc. Chem. Res. 28, 366-374). Sequences are as follows: antisense survivin, cscscsasgsCsCsTsTsCsCsAsGsCsTscscststsg; mismatch survivin, cscstsasgsCsCsTsTsCsCsAsGsGsTscscstsasg. Small letters refer to 2′-O-(2-methoxy)-ethyl-modified nucleotides, capital letters to DNA, and “s” refers to phosphorothioate linkages. Cells isolated and cultured as described above are treated with survivin antisense oligonucleotides (as) or survivin mismatch control oligonucleotides (ms) at the indicated concentrations. In the experiments in which GM-CSF (50 ng/ml; kind gift of T. Hartung, University of Konstanz, Konstanz, Germany) or G-CSF (25 ng/ml; PeproTech, BioConcept, Allschwil, Switzerland) are added, the oligonucleotides are given 2 h before addition of cytokines.\nValues are means ±S.E.M. of four independent experiments. *, p<0.05; **, p<0.01; ***, p<0.001."}, "[3]": {"test_system": "Survivin mRNA", "assay": "Real-time PCR quantification of survivin mRNA in neutrophils", "assay_type": "cell-based, human", "conditions": "for survivin mRNA expression in the absence of survival cytokines: 4-h transfection period, no cytokine", "experimental": "(§2) Neutrophils are cultured at 1×10^6 per ml in complete culture medium. GM-CSF (50 ng/ml; kind gift of T. Hartung, University of Konstanz, Konstanz, Germany) or G-CSF (25 ng/ml; PeproTech, BioConcept, Allschwil, Switzerland) are added. The duration of GM-CSF or G-CSF stimulation is indicated in each experiment.\nNeutrophils (1×10^7) are washed with PBS and the RNA is isolated according to the RNeasy protocol (Qiagen AG, Basel, Switzerland), which includes DNase digestion. RNA is reverse transcribed with the first strand cDNA synthesis kit (Amersham Pharmacia Biotech) by using random hexanucleotides according to the manufacturer's instructions. Real-time monitoring of PCR amplification of survivin cDNA is performed with a 1/100 dilution of neutrophil cDNA as previously described (Olie et al. (2000) Cancer Research 60, 2805-2809). Relative quantification of survivin expression is performed as described (Olie et al. (2000) Cancer Research 60, 2805-2809) utilizing rRNA as an internal standard.\nas §1"}, "[4]": {"test_system": "survivin", "assay": "Immunoblotting of survivin protein in neutrophils", "assay_type": "cell-based, human", "experimental": "as §2\nNeutrophils (5×10^6) are washed with PBS, lysed with RIPA-buffer (0.5% sodium deoxycholate, 1% Nonidet P-40, 0.1% SDS in PBS) supplemented with a protease inhibitor-cocktail (Sigma) with frequent vortexing on ice for 40 min, including two freeze/thaw cycles using a methanol/dry ice bath. After a 10-min centrifugation to remove insoluble particles, equal amounts of the cell lysates are loaded on NuPage-Gels (Invitrogen Corp., Groningen, Netherlands). Separated proteins are electrotransferred onto polyvinylidene difluoride (PVDF) membranes (Immobilion-P, Millipore, Bedford, Mass.). The filters are incubated overnight with a polyclonal anti-survivin antibody (1/1000; R&D Systems, Abingdon, UK) at 4° C. in TBS/0.1% Tween-20/3% non-fat dry milk. Purified full-length recombinant human survivin (2 μl) is provided by R&D Systems as positive control for anti-survivin immunoblotting. For loading controls, stripped filters are incubated with a monoclonal anti-β-actin antibody (1/10,000; Sigma). Filters are washed in TBS/0.1% Tween-20 for 30 min and incubated with the appropriate HRP-conjugated secondary antibody (Amersham Pharmacia Biotech, Dübendorf, Switzerland) in TBS/0.1% Tween-20/5% non-fat dry milk for 1 h. Filters are developed by an ECL-technique (ECL-Kit, Amersham Pharmacia Biotech) according to the manufacturer's instructions.\nas §1"}, "[5]": {"test_system": "caspase-3", "assay": "Enzymatic caspase assay (Ac-DEVD-pNA) in neutrophil lysates", "assay_type": "cell-based, human", "experimental": "(§3) Neutrophils (2.5×10^6) are cultured in the presence or absence of GM-CSF (50 ng/ml), G-CSF (25 ng/ml), 2-MOE modified antisense or mismatch survivin oligonucleotides at the indicated concentrations for 10 h, washed with cold PBS and subsequently lysed in 50 μl cell lysis buffer (50 mM HEPES, pH 7.4/0.1% Chaps/5 mM DTT/0.1 mM EDTA) using a Teflon glass homogenizer (VWR International, Ismaning, Germany) on ice for 10 min. After a 10-min centrifugation step at 10,000×g at 4° C., an aliquot of the supernatant is saved for caspase-3 immunoblotting and caspase 3-like activity is measured in 10 μl supernatants as enzymatic-conversion of the colorimetric substrate Ac-DEVD-pNA at 405 nm according to the manufacturer's instructions (QuantiZyme caspase 3 cellular activity assay kit, Biomol, Plymouth Meeting, Pa., USA)."}, "[6]": {"test_system": "caspase-3", "assay": "Caspase-3 immunoblotting in neutrophils", "assay_type": "cell-based, human", "experimental": "Immunoblotting is carried out as described above using supernatants of cell lysates. Caspase-3 is detected using a polyclonal anti-caspase-3 antibody (1/1000; Becton Dickinson Pharmingen, Heidelberg, Germany))\nas §3"}},
  "note": "e = 2'-O-(2-methoxyethyl) (MOE); d = 2'-deoxy (DNA)",
  "data": [
    {"molecule": "CS[C@]1(CO)C(=O)N2[C@H]3C(=CC=C[C@@H]3O)C[C@@]2(SC)C(=O)N1C", "note": "[methylgliotoxin, bis-Dethio-bis (Methylthio) Methyl Gliotoxin]", "values": [
      {"measurement": "block of the GM-CSF inhibition of neutrophil apoptosis (MTT)", "setting": "[1]", "value": "blocking effect is not seen"}
    ]},
    {"molecule": "cscscsasgsCsCsTsTsCsCsAsGsCsTscscststsg (CCCAGCCTTCCAGCTCCTTG; sugars from the 5' end e5 d10 e5, all phosphorothioate, methylation of C not given here) [survivin-antisense, second generation 2′-O-methoxy-ethoxy (2′-MOE) gapmer version of 4003]", "values": [
      {"measurement": "spontaneous apoptosis of neutrophils", "setting": "[2]; 10-h transfection period, no cytokine", "value": "increase spontaneous apoptosis"},
      {"measurement": "optimal concentration to block cytokine-mediated antiapoptosis", "setting": "[2]; G-CSF", "value": 5, "unit": "µM"},
      {"measurement": "optimal concentration to block cytokine-mediated antiapoptosis", "setting": "[2]; GM-CSF", "value": 2.5, "unit": "µM"},
      {"measurement": "GM-CSF- and G-CSF-mediated survival of neutrophils", "setting": "[2]", "value": "blocked GM-CSF- and G-CSF-mediated survival in a dose-dependent manner"},
      {"measurement": "survivin mRNA expression in the absence of survival cytokines", "setting": "[3]", "value": "only little effects"},
      {"measurement": "required concentration to significantly decrease survivin mRNA levels", "setting": "[3]; G-CSF stimulation", "value": 2.5, "unit": "µM"},
      {"measurement": "concentration sufficient to significantly decrease survivin mRNA levels", "setting": "[3]; GM-CSF stimulation", "value": 1.0, "unit": "µM"},
      {"measurement": "increases in survivin mRNA expression upon GM-CSF and G-CSF stimulation", "setting": "[3]; oligonucleotides given 2 h before cytokines, dose-dependent", "value": "prevents increases in survivin mRNA expression"},
      {"measurement": "protein expression of survivin in normal neutrophils", "setting": "[4]; 15-h transfection period, no cytokine", "value": "almost not affected"},
      {"measurement": "optimal concentration to block increase in survivin protein expression", "setting": "[4]; G-CSF stimulation", "value": 5, "unit": "µM"},
      {"measurement": "optimal concentration to block increase in survivin protein expression", "setting": "[4]; GM-CSF stimulation", "value": 2.5, "unit": "µM"},
      {"measurement": "increases in survivin expression (protein) upon GM-CSF and G-CSF stimulation", "setting": "[4]; dose-dependent", "value": "prevents increases in survivin expression"},
      {"measurement": "optimal concentration at which inhibitory effect on caspase-3 activity is completely blocked", "setting": "[5]; G-CSF", "value": 5, "unit": "µM"},
      {"measurement": "optimal concentration at which inhibitory effect on caspase-3 activity is completely blocked", "setting": "[5]; GM-CSF", "value": 2.5, "unit": "µM"},
      {"measurement": "caspase-3-like enzymatic activity in the presence of GM-CSF or G-CSF", "setting": "[5]; dose-dependent, 10 h", "value": "increase caspase-3-like enzymatic activity"},
      {"measurement": "optimal concentration to block inhibitory effects on caspase-3 processing", "setting": "[6]; G-CSF", "value": 5, "unit": "µM"},
      {"measurement": "optimal concentration to block inhibitory effects on caspase-3 processing", "setting": "[6]; GM-CSF", "value": 2.5, "unit": "µM"},
      {"measurement": "caspase-3 processing in the presence of GM-CSF or G-CSF", "setting": "[6]; dose-dependent, 10 h", "value": "increase caspase-3 processing"}
    ]},
    {"molecule": "cscstsasgsCsCsTsTsCsCsAsGsGsTscscstsasg (CCTAGCCTTCCAGGTCCTAG; sugars from the 5' end e5 d10 e5, all phosphorothioate, methylation of C not given here) [mismatch control oligonucleotides, reference compound]", "values": [
      {"measurement": "GM-CSF- and G-CSF-mediated survival of neutrophils", "setting": "[2]", "value": "unspecific effect"},
      {"measurement": "survivin mRNA expression in the absence of survival cytokines", "setting": "[3]", "value": "only little effects"}
    ]},
    {"molecule": "B1", "values": [
      {"measurement": "DNA-fragmentation of neutrophils with cytokine", "setting": "[2]; cytokine alone", "value": "prevent DNA-fragmentation"},
      {"measurement": "survivin mRNA in normal control neutrophils after cytokine addition", "setting": "[3]; cytokine added in vitro, A549 standard = 100%", "value": "increase in survivin mRNA"},
      {"measurement": "Levels of survivin (immunoblot) in normal control neutrophils", "setting": "[4]; cultured for 12 h in the presence of cytokine", "value": "increased"},
      {"measurement": "caspase-3 proform and 17-kDa fragment levels with cytokine", "setting": "[6]; neutrophils cultured with GM-CSF or G-CSF for 10 h", "value": "maintain greater amounts of the caspase-3 proform"}
    ]}
  ]
}
